Results as given in patent US20230365568A1, “PLK1 POLO BOX DOMAIN INHIBITORS AND METHOD OF TREATING CANCER” (The United States of America,as represented by the …, priority 2020, published 2023).
Like-named read-outs stand apart in the source and are kept apart here. Values belong to the compound of their own block, whether it stands above or below them.

Tests used:
in vitro = settings: PAMPA
[1] = In vitro stability in mice (mouse liver microsome assay); type: in vitro ADME; settings: liver microsomes, pH 7.4, read-out: t1/2 in vitro
Method: The reaction was stopped by an aliquot of 200 μL of ice-cold acetonitrile after 60 min. After centrifugation at 14 000×g for 10 min, a 5 μL aliquot of the supernatant was injected into a UHPLC-[…]. […] A trace amount of the subsequent glucuronide of the demethylated metabolite was also seen in the serum, as it could be promptly excreted from the liver to the bile, once generated, and can then undergo enterohepatic circulation through which the demethylated product is reabsorbed to the circulation. This could also serve as an explanation for the increased demethylated metabolite at the last time point.

full-length human Plk1 = full-length human Plk1 (Homo sapiens (Human), UniProt P53350); experiment: ELISA-based Plk1 PBD-binding inhibition assay; settings: Plk1 PBD; n = 3 unless noted
Sequence of full-length human Plk1 (P53350 whole entry): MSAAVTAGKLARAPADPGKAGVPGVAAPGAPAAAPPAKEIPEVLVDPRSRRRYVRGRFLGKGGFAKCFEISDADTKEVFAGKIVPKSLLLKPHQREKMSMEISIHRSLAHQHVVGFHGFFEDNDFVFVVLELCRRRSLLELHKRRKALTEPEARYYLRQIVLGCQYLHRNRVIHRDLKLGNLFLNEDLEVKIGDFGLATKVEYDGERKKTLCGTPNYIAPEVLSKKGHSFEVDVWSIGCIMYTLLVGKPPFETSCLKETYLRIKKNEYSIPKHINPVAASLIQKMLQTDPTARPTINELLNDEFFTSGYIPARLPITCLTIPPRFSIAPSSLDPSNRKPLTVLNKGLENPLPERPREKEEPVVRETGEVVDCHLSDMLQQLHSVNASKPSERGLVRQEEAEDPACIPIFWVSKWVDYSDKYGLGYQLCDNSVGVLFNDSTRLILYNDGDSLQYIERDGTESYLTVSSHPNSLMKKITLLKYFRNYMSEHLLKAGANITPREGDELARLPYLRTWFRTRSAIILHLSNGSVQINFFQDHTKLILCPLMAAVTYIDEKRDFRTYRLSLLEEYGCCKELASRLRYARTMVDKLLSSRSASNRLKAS
Method: An ELISA-based PBD-binding inhibition assay was performed essentially as described previously. […] The wells were washed once with PBS+0.05% Tween20 (PBST) and incubated with 200 μl of PBS plus 1% BSA (blocking buffer) for 1 h to prevent non-specific binding. HEK293A lysates expressing HA-EGFP-Plk1 were prepared in a TBSN [20 mM Tris-HCl (pH 8.0), 150 mM NaCl, 0.5% NP-40, 5 mM EGTA, 2 mM MgCl2, 1.5 mM EDTA, and protease inhibitor cocktail (Roche)]+20% DMSO buffer (˜20 μg total lysates in 100 μl buffer), mixed with the indicated amount of the competitors (p-T78 peptide and its derivative compounds) for 30 min, provided onto the biotinylated peptide-coated ELISA wells, and then incubated with constant rocking for 1 h at 25° C. Following the incubation, ELISA plates were washed 5 times with PBST. To detect bound HA-EGFP-Plk1, the plates were probed for 2 h with 100 μl/well of anti-HA antibody at a concentration of 0.5 μg/ml in the blocking buffer and then washed 5 times. The plates were further probed for 1 h with 100 μl/well of HRP-conjugated secondary antibody (GE Healthcare) at a 1:1,000 dilution in the blocking buffer. The plates were washed 5 times with PBST and incubated with 100 μl/well of 3,3′,5,5′-tetramethylbenzidine solution (Sigma-Aldrich, St. Louis, MO) as substrate until a desired absorbance was reached. The reactions were stopped by the addition of 100 μl/well of stop solution (Cell Signaling Technology, Danvers, MA). The optical density (O.D.) was measured at 450 nm by using a Perkin-Elmer Enspire Multimode Plate reader (PerkinElmer, Inc., Boston, MA). Data obtained from more than three independent experiments were analyzed by GraphPad (San Diego, CA) Prism software version 7.
ELISA-based PBD-binding Inhibition Assay. […] The reaction products were measured at 450 nm by using a Perkin-Elmer Enspire Multimode Plate reader (PerkinElmer, Inc., Boston, MA). Data obtained from more than three independent experiments were analyzed by GraphPad (San Diego, CA) Prism software version 7.

[2] = In vivo mouse pharmacokinetics, intraperitoneal; settings: mice
Method: The National Cancer Institute Animal Care and Use Committee approved all animal experiments conducted in this study.
In the in vivo mouse pharmacokinetics study, 6-8-week-old male C57BL/6 mice were selected for metabolite profiling. In brief, 200 μL/20 g mice of WA (20 mg/kg dissolved in 5% DMSO and 5% Tween 80-contained saline) was administered intraperitoneally to mice. Control mice were treated with saline containing 5% DMSO and 5% Tween 80 alone. […] Blood samples were collected by retro-orbital bleeding at 4 h postdose. After centrifugation for 10 min at 14 000×g, serum was obtained and prepared by mixing 20 μL serum with 180 μL 50% aqueous acetonitrile. After centrifugation at 14 000×g for 20 min, a 5 μL aliquot of the supernatants was injected into a Waters UPLC-ESI-QTOFMS system (Waters Corporation, Milford, MA).

[3] = Stability in human liver microsomes; type: in vitro ADME; settings: read-out: t1/2 Human LM
[4] = Stability in mouse cytosol; type: in vitro ADME; settings: read-out: t1/2 Mouse cytosol
Stability in rat cytosol = type: in vitro ADME; settings: read-out: t1/2 Rat cytosol
[5] = Stability in rat liver microsomes (Table 10); type: in vitro ADME; settings: read-out: t1/2 Rat LM
[6] = Stability in mouse liver microsomes; type: in vitro ADME; settings: read-out: t1/2 Mouse LM
[7] = Stability in human cytosol; type: in vitro ADME; settings: read-out: t1/2 Human cytosol
[8] = test system: Plk1 localization to centrosomes and kinetochores in HeLa cells; experiment: Immunostaining of Plk1 localization and spindle morphology in HeLa cells; type: cell-based; settings: 100 μM; for inhibition at 100 µM: Homo sapiens
Method: HeLa cells were cultured as recommended by the American Type Culture Collection (ATCC). Asynchronously growing cells were treated with control DMSO or the indicated concentration of 143. To reveal chromosome morphologies, cells were treated with 4′,6-diamidino-2-phenylindole (DAPI), fixed, and subjected to confocal microscopy. Immunostaining was carried out using anti-Plk1 (Santa Cruz Biotechnology, Santa Cruz, CA), anti-Cep63 (MilliporeSigma), anti-CREST (Antibodies Incorp, Davis, CA), and anti-α-tubulin (Sigma, St. Louis, MO) antibodies. Confocal images were acquired using a Zeiss LSM780 equipped with a plan-apochromat 63× (N.A. 1.4) oil-immersion objective lens, 34-channel GaAsP spectral detector (Carl Zeiss Microscopy, LLC.), and 8-bit, 0.5-μm z-steps.
To quantify fluorescence signal intensities, images were acquired under the same settings and the images obtained after the maximum-intensity projection of z-stacks were analyzed using the Zeiss ZEN v2.1 software (Carl Zeiss Microscopy, LLC). All the quantifications were performed with randomly chosen fields from at least three independent experiments. All values are given as mean±s. D. P values were calculated by unpaired t test from the mean data of each group in Graph Pad Prism (***P<0.001). The statistical details including the definitions and value of n (e.g., number of experimental replicates, cells, etc.) And standard deviations are provided herein.
To directly examine whether the observed mitotic arrest was the consequence of inhibiting Plk1 PBD function, immunostaining analysis was carried out to determine the ability of intracellular Plk1 to localize to centrosomes and kinetochores, an event that requires PBD-mediated protein-protein interaction (Lee et al., Trends Pharmacol. Sci. 36, 858-877 (2015); and Elia et al., Cell 115, 83-95 (2003)). […] A short treatment time (i.e., 2 h), which was intended to minimize a potential indirect effect of these inhibitors, was sufficient to delocalize greater than 70% of Plk1 signals from centrosomes (marked by anti-Cep63 signals) and 90% of those from kinetochores (marked by anti-CREST signals).

PBD of Plk1 [9] = target: T1, PBD of Plk1 (Homo sapiens (Human), UniProt P53350); experiment: Fluorescence polarization (FP)-based PBD inhibition assay, Plk1; type: binding
T1 sequence (P53350 326-603): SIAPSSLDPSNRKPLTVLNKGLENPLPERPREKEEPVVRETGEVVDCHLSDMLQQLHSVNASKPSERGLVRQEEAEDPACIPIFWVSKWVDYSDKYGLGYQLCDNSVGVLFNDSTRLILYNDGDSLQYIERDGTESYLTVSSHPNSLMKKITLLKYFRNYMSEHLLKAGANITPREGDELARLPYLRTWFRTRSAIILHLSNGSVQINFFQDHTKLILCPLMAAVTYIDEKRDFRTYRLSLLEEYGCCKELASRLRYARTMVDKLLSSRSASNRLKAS
Method: (§1) FP assays were carried out essentially as described previously (Qian, ibid). […] All experiments were performed in triplicate for each sample.
(§2) PBD Fluorescence Polarization (FP) Binding Assays for Plk1 specificity. […] All experiments were performed in triplicate for each sample.

[10] = rat, microsomes
CYP3A = experiment: Mouse liver microsome assay with CYP-specific inhibitors; type: in vitro ADME; settings: mouse liver microsomes
Method: In Vitro MLM Assay. Incubations of the mouse liver microsome (MLM) samples were performed in duplicate. Reactions (200 μL final volume) were conducted in 50 mM potassium phosphate buffer, 3 mM MgCl2 (pH 7.4), 1 mg/mL MLM protein, and 2.5 μM test compound with or without 50 μM inhibitor. The mixture was preincubated at 37° C. for 3 min and initiated with 4 mM NADPH. At the serial time of the incubation, 20 μL of the mixture was added to ice-cold 80 μL of 90% acetonitrile including 4 μM of 4 followed by a 25 min incubation on ice and centrifugation at 14,000×g for 10 min. 40 μL of supernatant was diluted with 20 μL of water, and a 5 μL aliquot was injected into the UPLC-QTOF system.
To evaluate metabolic stability information, S-methyl 51 and 5-thio-1-methyl-4-nitroimidazolyl 73 prodrugs were administered orally in male C57BL/6 mice via gavage 50 mg/kg or 20 mg/kg, respectively. […] The AUCs of 14 were 523,200 mg-h/L and 317,600 mg-h/L in 50 mg/kg and 20 mg/kg doses, respectively. Compound 14 was further metabolized by glucuronidation. […] The presence of the 9-F group impeded the hydroxylation, compared to the PK studies in Alverez et al. (J. Med. Chem. 63, 14087-14117 (2020)).

[11] = Microsomal metabolic stability, rat liver microsomes (RLM); settings: rat liver microsomes
Aqueous solubility = settings: for Solub.: aqueous solubility
PBD of Plk1 [12] = target: T1, PBD of Plk1; settings: Gunasekaran et al., 2020; cited from earlier work
HeLa cells = settings: cancer cells in vitro; Alverez et al., 2020; cited from earlier work
PBD of Plk2 = PBD of Plk2 (Homo sapiens (Human), UniProt Q9NYY3); experiment: Fluorescence polarization (FP)-based PBD inhibition assay, Plk2; type: binding
Sequence of PBD of Plk2 (Q9NYY3 355-685): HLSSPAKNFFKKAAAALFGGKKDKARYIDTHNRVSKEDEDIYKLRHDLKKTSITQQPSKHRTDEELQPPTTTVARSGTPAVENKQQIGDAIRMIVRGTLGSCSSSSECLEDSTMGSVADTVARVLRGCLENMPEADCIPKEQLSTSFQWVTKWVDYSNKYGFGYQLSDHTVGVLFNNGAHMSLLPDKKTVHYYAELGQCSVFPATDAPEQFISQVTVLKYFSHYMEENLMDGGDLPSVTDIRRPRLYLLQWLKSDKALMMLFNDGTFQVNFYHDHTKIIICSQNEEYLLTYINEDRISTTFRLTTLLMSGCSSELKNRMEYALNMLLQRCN
Method: as §1, §2

PBD of Plk3 = PBD of Plk3 (Homo sapiens (Human), UniProt Q9H4B4); experiment: Fluorescence polarization (FP)-based PBD inhibition assay, Plk3; type: binding
Sequence of PBD of Plk3 (Q9H4B4 335-646): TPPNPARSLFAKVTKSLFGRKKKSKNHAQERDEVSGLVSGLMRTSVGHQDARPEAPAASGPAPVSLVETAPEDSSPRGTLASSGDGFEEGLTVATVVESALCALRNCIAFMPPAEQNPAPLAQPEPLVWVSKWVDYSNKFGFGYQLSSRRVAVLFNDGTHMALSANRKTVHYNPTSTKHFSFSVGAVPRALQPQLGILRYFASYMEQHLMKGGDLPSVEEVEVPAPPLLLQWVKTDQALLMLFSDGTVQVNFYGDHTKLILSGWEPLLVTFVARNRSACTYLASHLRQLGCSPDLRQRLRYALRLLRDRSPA
Method: as §1, §2

- Papp (in vitro): 27.6 ×10⁻⁶ cm/s
Compound: Cc1noc(C)c1C=CC(=O)NCCCn1c(=O)c2cc(F)ccc2n2c(=S)[nH]nc12 [compound 121, 3-(3,5-dimethylisoxazol-4-yl)-N-(3-(7-fluoro-5-oxo-1-thioxo-1,2-dihydro-[1,2,4]triazolo[4,3-a]quinazolin-4(5H)-yl)propyl)propenamide]

- half-life at 20 µM [1]: 21.8 ± 6.03 min
Compound: CCCn1c(=O)c2cccc(F)c2n2c(SC)nnc12 [compound 145, 9-fluoro-1-(methylthio)-4-propyl-[1,2,4]triazolo[4,3-a]quinazolin-5(4H)-one]

- t1/2 (min, RLM) [11]: >30 min
- PAMPA: 46.0 ×10⁻⁶ cm/s
- solubility (Aqueous solubility): moderate to good solubility
- Solub. (Aqueous solubility): 16.2 µg/mL
Compound: O=c1c2cc(F)ccc2n2c(=S)[nH]nc2n1CC1CC1 [compound 79]
- inhibition of Plk2 PBD, FP assay (PBD of Plk2): failed to exhibit any detectable level of inhibition
- inhibition of Plk3 PBD, FP assay (PBD of Plk3): failed to exhibit any detectable level of inhibition

The remaining lines, values behind:

Compound: CCCn1c(=O)c2ccccc2n2c(SC)nnc12 [compound 143, 1-(methylthio)-4-propyl-[1,2,4]triazolo[4,3-a]quinazolin-5(4H)-one]
- IC50 (full-length human Plk1): > 50 µM
- half-life ([2]; male, C57BL/6, mouse, serum, ip, 20 mg/kg, in vivo, intraperitoneal, read-out: t1/2 in vivo): 28.7 ± 8.3 min
- metabolites in serum ([2]; ≥15 min post-injection): both the hydroxylated and demethylated products were detected in the serum
- half-life at 20 µM [1]: 11.4 ± 3.49 min
- half-life [3]: 16.8 min
- half-life [4]: > 120 min
- half-life (Stability in rat cytosol): > 120 min
- half-life [5]: 9.41 min
- half-life [6]: 3.77 min
- half-life [7]: > 120 min
- spindle bipolarity [8]: significantly compromised
- inhibition at 100 µM ([8]; read-out: inhibition of Plk1 localization to centrosomes): ~20%
- inhibition at 100 µM ([8]; read-out: inhibition of Plk1 localization to kinetochores): ~50%

Compound: PLHST [6b]
- activity in FP-based assay (PBD of Plk1 [9]): no detectable activity

Compound: 7-fluoro-4-(2-(piperidin-1-yl)ethyl)-1-thioxo-2,4-dihydro-[1,2,4]triazolo[4,3-a]quinazolin-5(1H)-one [Example 49]
- t1/2 (min, RLM) [10]: >30 min

Compound: CC(=O)NCCCn1c(=O)c2cc(F)ccc2n2c(=S)[nH]nc12 [compound 73]
- sensitivity of conversion to 14 to ketoconazole (CYP3A inhibitor) (CYP3A): refractory to ketoconazole treatment
- t1/2 (min, RLM) [11]: >30 min
- PAMPA: 18.0 ×10⁻⁶ cm/s
- Solub. (Aqueous solubility): >50 µg/mL

Compound: CNc1ccc(C(=O)NCCn2cc(C=C3C(=O)NC(=O)NC3=O)c(-c3ccccc3)n2)cc1 [KBJK557]
- cross-reactivity among Plk1-3 PBDs (PBD of Plk1 [12]): considerable cross-reactivities among Plk1-3 PBDs

Compound: CSc1nnc2n(CCc3ccccc3)c(=O)c3ccccc3n12 [Example 6, 1-(methylthio)-4-phenethyl-[1,2,4]triazolo[4,3-a]quinazolin-5(4H)-one]
- concentration required to induce mitotic arrest and affect proliferation (HeLa cells): > 100 µM
